Common to all, as to assay type: in vivo
Assay [1] deals with ragweed (common ragweed, Ambrosia elatior). The assay is described as follows: Test A postemergence. To be noted: Ambrosia artemisiifolia, post-emergence, 240 h, 125 g ai/ha. The method, boiled down: (§1)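 Seeded soil received test chemicals as a preemergence directed spray, and seedlings at one to two leaves, 2–10 cm tall, received them postemergence, in a non-phytotoxic, surfactant-containing solvent mixture. Pots were held in a greenhouse for approximately 10 d, then rated for injury from 0, no effect, to 100, complete control.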

For assay [2], the system named is Galium (catchweed bedstraw, Galium aparine). The assay is described as follows: Test A postemergence. To be noted: Galium, post-emergence, 240 h, 125 g ai/ha. In a few lines: as §1
Assay [3] concerns barnyardgrass (Echinochloa crus-galli). In words: Test A postemergence. As to conditions: Echinochloa crus-galli, post-emergence, 240 h, 125 g ai/ha. In a few lines: as §1
Another assay deals with corn (Zea mays). In words: Test A postemergence. As to conditions: Zea mays, post-emergence, 240 h, 125 g ai/ha; for plant injury at 125 g/ha: postemergence, visual injury rating after approximately 10 d, read-out: Corn plant response rating (0 to 100 scale, 0 no effect, 100 complete control). The method, boiled down:
as §1

Assay [4] has as its system pigweed (Amaranthus retroflexus). In words: Test A preemergence. As to conditions: Amaranthus retroflexus, pre-emergence, 240 h; for pest or weed control at 125 g/ha: 125 g ai/ha; for pest or weed control at 500 g/ha: 500 g ai/ha.
Assay [5] deals with ragweed (common ragweed, Ambrosia elatior). The assay is described as follows: Test A preemergence. To be noted: Ambrosia artemisiifolia, pre-emergence, 240 h; for pest or weed control at 125 g/ha: 125 g ai/ha; for pest or weed control at 500 g/ha: 500 g ai/ha. In a few lines: as §1
Assay [6] deals with barnyardgrass (Echinochloa crus-galli). The assay is described as follows: Test A preemergence. To be noted: Echinochloa crus-galli, pre-emergence, 240 h; for pest or weed control at 125 g/ha: 125 g ai/ha; for pest or weed control at 500 g/ha: 500 g ai/ha. The method, boiled down:
as §1

Assay [7] deals with ryegrass, Italian (Italian ryegrass, Lolium multiflorum). In words: Test A preemergence. To be noted: Lolium multiflorum, pre-emergence, 240 h; for pest or weed control at 125 g/ha: 125 g ai/ha; for pest or weed control at 500 g/ha: 500 g ai/ha. The method, boiled down: as §1
The test system of assay [8] is giant foxtail (Setaria faberii). The assay is described as follows: Test A preemergence. As to conditions: Setaria faberi, pre-emergence, 240 h; for pest or weed control at 125 g/ha: 125 g ai/ha; for pest or weed control at 500 g/ha: 500 g ai/ha. In a few lines: as §1
For a further assay, the system named is Kochia (Kochia scoparia). In words: Test A preemergence. To be noted: Bassia scoparia, pre-emergence, 240 h; for pest or weed control at 125 g/ha: 125 g ai/ha; for pest or weed control at 500 g/ha: 500 g ai/ha. In a few lines:
as §1

Assay [9] has as its system ducksalad (Heteranthera limosa). In words: Test B flooded paddy test. As to conditions: Heteranthera limosa, Flood, 250 g ai/ha; scale of 0 to 100 where 0 is no effect and 100 is complete control; read-out: Ducksalad plant response rating. In a few lines: (§2)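 Evaluation by eye, against controls, occurred 13–15 d post-treatment in a greenhouse, using a 0 (no effect) to 100 (complete control) scale. Application was into the paddy water, 3 cm deep over the soil, on 2-leaf plants.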

For a further assay, the system named is rice (Oryra sativa). The assay is described as follows: Test B flooded paddy test. To be noted: Oryza sativa, Flood, 250 g ai/ha; scale of 0 to 100 where 0 is no effect and 100 is complete control; read-out: Rice plant response rating. The method, boiled down:
as §2

The test system of assay [10] is barnyardgrass (Echinochloa crus-galli). In words: Test B flooded paddy test. As to conditions: Echinochloa crus-galli, Flood, 250 g ai/ha; scale of 0 to 100 where 0 is no effect and 100 is complete control; read-out: Barnyardgrass plant response rating. In a few lines:
as §2

Assay [11] concerns sedge, umbrella (small-flower umbrella sedge, Cyperus difformis). The assay is described as follows: Test B flooded paddy test. To be noted: Cyperus difformis, Flood, 250 g ai/ha; scale of 0 to 100 where 0 is no effect and 100 is complete control; read-out: Sedge, Umbrella plant response rating. In a few lines: as §2
[12] abbreviates: postemergence, visual injury rating after approximately 10 d, read-out: Ragweed plant response rating (0 to 100 scale, 0 no effect, 100 complete control).
The mark [13] stands for this setting: postemergence, visual injury rating after approximately 10 d, read-out: Galium plant response rating (0 to 100 scale, 0 no effect, 100 complete control).
Where [14] appears, read: postemergence, visual injury rating after approximately 10 d, read-out: Barnyardgrass plant response rating (0 to 100 scale, 0 no effect, 100 complete control).
Where [15] appears, read: preemergence, 0 to 100 scale where 0 is no effect and 100 is complete control, read-out: Pigweed plant response rating.
Where [16] appears, read: Preemergence, visual injury vs untreated controls after approximately 10 d, read-out: Pigweed plant response rating (0 to 100 scale where 0 is no effect and 100 is complete control).
[17] abbreviates: preemergence, 0 to 100 scale where 0 is no effect and 100 is complete control, read-out: Ragweed plant response rating.
[18] abbreviates: Preemergence, visual injury vs untreated controls after approximately 10 d, read-out: Ragweed plant response rating (0 to 100 scale where 0 is no effect and 100 is complete control).
Where [19] appears, read: preemergence, 0 to 100 scale where 0 is no effect and 100 is complete control, read-out: Barnyardgrass plant response rating.
Where [20] appears, read: Preemergence, visual injury vs untreated controls after approximately 10 d, read-out: Barnyardgrass plant response rating (0 to 100 scale where 0 is no effect and 100 is complete control).
Where [21] appears, read: preemergence, 0 to 100 scale where 0 is no effect and 100 is complete control, read-out: Ryegrass, Italian plant response rating.
Setting [22] is: Preemergence, visual injury vs untreated controls after approximately 10 d, read-out: Ryegrass, Italian plant response rating (0 to 100 scale where 0 is no effect and 100 is complete control).
Where [23] appears, read: preemergence, 0 to 100 scale where 0 is no effect and 100 is complete control, read-out: Foxtail, Giant plant response rating.
The mark [24] stands for this setting: Preemergence, visual injury vs untreated controls after approximately 10 d, read-out: Foxtail, Giant plant response rating (0 to 100 scale where 0 is no effect and 100 is complete control).
The mark [25] stands for this setting: preemergence, 0 to 100 scale where 0 is no effect and 100 is complete control, read-out: Kochia plant response rating.
Where [26] appears, read: Preemergence, visual injury vs untreated controls after approximately 10 d, read-out: Kochia plant response rating (0 to 100 scale where 0 is no effect and 100 is complete control).

These results are taken from patent US12077503B2, “Substituted cyclic amides and their use as herbicides” (FMC CORPORATION, priority 2015, dated 2024).

Like-named read-outs stand apart in the source and are kept apart here.

In the case of `O=C1NC[C@H](c2cccc(C(F)(F)F)c2)[C@H]1C(=O)Nc1cccc2c1OC(F)(F)O2` [Compound 827], the pest or weed control at 125 g/ha came out at 0% in [1] (setting [12]); 40% in [2] (setting [13]); 70% in [3] (setting [14]); 20% in assay [4] (setting [15]); 0% in assay [5] (setting [17]); 90% in assay [6] (setting [19]). The results for the pest or weed control at 125 g/ha (in [7] (setting [21]); in [8] (setting [23]); in the assay with Kochia (Kochia scoparia) (setting [25])) were 30%, 90% and 30%, respectively. Further, the plant injury at 125 g/ha in the assay on corn (Zea mays) is 20%. Further, the pest or weed control at 500 g/ha worked out at 40% in [4] (setting [16]); 20% in assay [5] (setting [18]); 90% in [6] (setting [20]); 70% in assay [7] (setting [22]); 90% in assay [8] (setting [24]); 60% in the assay with Kochia (Kochia scoparia) (setting [26]). Also, the pest or weed control at 250 g/ha came out at 75% in assay [9], 0% with rice (Oryra sativa), 30% in [10] and 0% in [11].

Regarding `CN1C[C@H](c2cc(C(F)(F)F)cs2)[C@@H](C(=O)Nc2ccccc2F)C1=O` [Compound 962], the pest or weed control at 125 g/ha in assay [1] (Postemergence, visual injury after approximately 10 d, 0 to 100 scale where 0 is no effect and 100 is complete control, read-out: Plant response rating, Ragweed) was determined as 0%; in assay [2] (Postemergence, visual injury after approximately 10 d, 0 to 100 scale where 0 is no effect and 100 is complete control, read-out: Plant response rating, Galium) it was 30%; in assay [3] (Postemergence, visual injury after approximately 10 d, 0 to 100 scale where 0 is no effect and 100 is complete control, read-out: Plant response rating, Barnyardgrass), 90%; in assay [4] (Preemergence, visual injury rating after approximately 10 d, read-out: Pigweed plant response rating (0 to 100 scale, 0 is no effect, 100 is complete control)), 0%; in assay [5] (Preemergence, visual injury rating after approximately 10 d, read-out: Ragweed plant response rating (0 to 100 scale, 0 is no effect, 100 is complete control)), 20%; in assay [6] (Preemergence, visual injury rating after approximately 10 d, read-out: Barnyardgrass plant response rating (0 to 100 scale, 0 is no effect, 100 is complete control)), 90%. Further, the pest or weed control at 125 g/ha in assay [7] (Preemergence, visual injury rating after approximately 10 d, read-out: Ryegrass, Italian plant response rating (0 to 100 scale, 0 is no effect, 100 is complete control)) is 0%; in assay [8] (Preemergence, visual injury rating after approximately 10 d, read-out: Foxtail, Giant plant response rating (0 to 100 scale, 0 is no effect, 100 is complete control)), 90%; in the assay on Kochia (Kochia scoparia) (Preemergence, visual injury rating after approximately 10 d, read-out: Kochia plant response rating (0 to 100 scale, 0 is no effect, 100 is complete control)) it was 50%. Moreover, in the assay on corn (Zea mays) (Postemergence, visual injury after approximately 10 d, 0 to 100 scale where 0 is no effect and 100 is complete control), the Corn plant response rating (crop injury, 0 = no effect, 100 = complete kill) at 125 g/ha is 0%. For the same molecule, the pest or weed control at 500 g/ha came to 50% in assay [4] (preemergence, visual injury rating about 10 d after treatment, 0 to 100 scale (0 no effect, 100 complete control), read-out: Pigweed plant response rating); 30% in assay [5] (preemergence, visual injury rating about 10 d after treatment, 0 to 100 scale (0 no effect, 100 complete control), read-out: Ragweed plant response rating); 90% in assay [6] (preemergence, visual injury rating about 10 d after treatment, 0 to 100 scale (0 no effect, 100 complete control), read-out: Barnyardgrass plant response rating); 30% in assay [7] (preemergence, visual injury rating about 10 d after treatment, 0 to 100 scale (0 no effect, 100 complete control), read-out: Ryegrass, Italian plant response rating); 90% in assay [8] (preemergence, visual injury rating about 10 d after treatment, 0 to 100 scale (0 no effect, 100 complete control), read-out: Foxtail, Giant plant response rating); 70% in the assay on Kochia (Kochia scoparia) (preemergence, visual injury rating about 10 d after treatment, 0 to 100 scale (0 no effect, 100 complete control), read-out: Kochia plant response rating). For the same molecule, the pest or weed control at 250 g/ha was found to be 90% in [9], 10% in the assay on rice (Oryra sativa), 60% in assay [10] and 0% in assay [11].

Turning to `COc1c(F)ccc([C@H]2CN(C)C(=O)[C@@H]2C(=O)Nc2ccc(F)c(F)c2F)c1Cl` [Compound 895], the pest or weed control at 125 g/ha in [1] (setting [12]) was determined as 0%; in assay [2] (setting [13]), 70%; in [3] (setting [14]), 90%; in assay [4] (setting [15]), 50%; in [5] (setting [17]), 0%; in assay [6] (setting [19]) it was 90%. In addition, the pest or weed control at 125 g/ha (in assay [7] (setting [21]); in [8] (setting [23]); in the assay on Kochia (Kochia scoparia) (setting [25])) was 90% each time. In the assay with corn (Zea mays), the plant injury at 125 g/ha is 80%. For the same molecule, the pest or weed control at 500 g/ha was 50% in [4] (setting [16]); 0% in assay [5] (setting [18]); 100% in assay [6] (setting [20]); 70% in assay [7] (setting [22]); 90% in assay [8] (setting [24]); 90% with Kochia (Kochia scoparia) (setting [26]). The pest or weed control at 250 g/ha amounted to 85% in [9], 0% in the assay on rice (Oryra sativa), 75% in assay [10] and 0% in assay [11].
